# Experimental data from PubChem BioAssay (NCI).
#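 Tested at 5 concentrations; 48 h exposure; 96-well plates; endpoints linearly interpolated, else capped at highest concentration. At the GI50, growth is halved. TGI denotes the concentration required for complete inhibition of growth.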
# How the values were obtained:
# Test in all cases: NCI anticancer screen, dose series, 48 h
# SF-295 CNS = system: SF-295 CNS
# LOX IMVI melanoma = system: LOX IMVI melanoma
# KM20L2 colon = system: KM20L2 colon
# SF-539 CNS = system: SF-539 CNS
# SF-268 CNS = system: SF-268 CNS
# HOP-18 NSCLC = system: HOP-18 NSCLC
# DLD-1 colon = system: DLD-1 colon
# HCT-116 colon = system: HCT-116 colon
# SNB-19 CNS = system: SNB-19 CNS
# DMS 114 small cell lung = system: DMS 114 small cell lung
# SW-620 colon = system: SW-620 colon
# OVCAR-5 ovarian = system: OVCAR-5 ovarian
# SN12C renal = system: SN12C renal
# M19-MEL melanoma = system: M19-MEL melanoma
# HOP-62 NSCLC = system: HOP-62 NSCLC
# UACC-62 melanoma = system: UACC-62 melanoma
# UACC-257 melanoma = system: UACC-257 melanoma
# IGROV1 ovarian = system: IGROV1 ovarian
# XF 498 CNS = system: XF 498 CNS
# U251 CNS = system: U251 CNS
# SNB-78 CNS = system: SNB-78 CNS
# SK-OV-3 ovarian = system: SK-OV-3 ovarian
# ACHN renal = system: ACHN renal
# HOP-92 NSCLC = system: HOP-92 NSCLC
# 786-0 renal = system: 786-0 renal
# SK-MEL-2 melanoma = system: SK-MEL-2 melanoma
# RXF 393 renal = system: RXF 393 renal
# SR leukemia = system: SR leukemia
# COLO 205 colon = system: COLO 205 colon
# SK-MEL-5 melanoma = system: SK-MEL-5 melanoma
# LXFL 529 NSCLC = system: LXFL 529 NSCLC
# MOLT-4 leukemia = system: MOLT-4 leukemia
# A498 renal = system: A498 renal
# HT29 colon = system: HT29 colon
# TK-10 renal = system: TK-10 renal
# OVCAR-4 ovarian = system: OVCAR-4 ovarian
# OVCAR-3 ovarian = system: OVCAR-3 ovarian
# DMS 273 small cell lung = system: DMS 273 small cell lung
# NCI-H23 lung = system: NCI-H23 lung
# M14 melanoma = system: M14 melanoma
# MALME-3M melanoma = system: MALME-3M melanoma
# SNB-75 CNS = system: SNB-75 CNS
# NCI-H460 lung = system: NCI-H460 lung
# OVCAR-8 ovarian = system: OVCAR-8 ovarian
# EKVX NSCLC = system: EKVX NSCLC
# SK-MEL-28 melanoma = system: SK-MEL-28 melanoma
# K-562 leukemia = system: K-562 leukemia
# CCRF-CEM leukemia = system: CCRF-CEM leukemia
# NCI-H522 lung = system: NCI-H522 lung
# UO-31 renal = system: UO-31 renal
# KM12 colon = system: KM12 colon
# NCI-H226 lung = system: NCI-H226 lung
# HCT-15 colon = system: HCT-15 colon
# A549 NSCLC = system: A549 NSCLC
# HCC-2998 colon = system: HCC-2998 colon
smiles,measurement,setting,value
CCC[CH2][Sn]([CH2]CCC)([O]C(=O)Cc1ccc(F)cc1)[O]C(=O)Cc1ccc(F)cc1,GI50,SF-295 CNS,1.13 µM
same,TGI,SF-295 CNS,2.34 µM
same,GI50,LOX IMVI melanoma,0.279 µM
same,TGI,LOX IMVI melanoma,1.27 µM
same,GI50,KM20L2 colon,1.88 µM
same,TGI,KM20L2 colon,4.69 µM
same,GI50,SF-539 CNS,1.06 µM
same,TGI,SF-539 CNS,2.28 µM
same,GI50,SF-268 CNS,0.45 µM
same,TGI,SF-268 CNS,1.75 µM
same,GI50,HOP-18 NSCLC,1.67 µM
same,TGI,HOP-18 NSCLC,3.05 µM
same,GI50,DLD-1 colon,0.291 µM
same,TGI,DLD-1 colon,1.42 µM
same,GI50,HCT-116 colon,0.657 µM
same,TGI,HCT-116 colon,1.97 µM
same,GI50,SNB-19 CNS,1.36 µM
same,TGI,SNB-19 CNS,2.65 µM
same,GI50,DMS 114 small cell lung,0.14 µM
same,TGI,DMS 114 small cell lung,0.393 µM
same,GI50,SW-620 colon,0.206 µM
same,TGI,SW-620 colon,1.13 µM
same,GI50,OVCAR-5 ovarian,1.79 µM
same,TGI,OVCAR-5 ovarian,3.18 µM
same,GI50,SN12C renal,0.856 µM
same,TGI,SN12C renal,2.1 µM
same,GI50,M19-MEL melanoma,0.295 µM
same,TGI,M19-MEL melanoma,1.65 µM
same,GI50,HOP-62 NSCLC,2.38 µM
same,TGI,HOP-62 NSCLC,4.08 µM
same,GI50,UACC-62 melanoma,0.629 µM
same,TGI,UACC-62 melanoma,1.89 µM
same,GI50,UACC-257 melanoma,0.603 µM
same,TGI,UACC-257 melanoma,1.99 µM
same,GI50,IGROV1 ovarian,1.34 µM
same,TGI,IGROV1 ovarian,2.79 µM
same,GI50,XF 498 CNS,1.08 µM
same,TGI,XF 498 CNS,2.29 µM
same,GI50,U251 CNS,0.361 µM
same,TGI,U251 CNS,1.54 µM
same,GI50,SNB-78 CNS,0.284 µM
same,TGI,SNB-78 CNS,1.57 µM
same,GI50,SK-OV-3 ovarian,2.93 µM
same,TGI,SK-OV-3 ovarian,7.33 µM
same,GI50,ACHN renal,0.756 µM
same,TGI,ACHN renal,2.01 µM
same,GI50,HOP-92 NSCLC,1.02 µM
same,TGI,HOP-92 NSCLC,2.2 µM
same,GI50,786-0 renal,0.505 µM
same,TGI,786-0 renal,1.72 µM
same,GI50,SK-MEL-2 melanoma,0.355 µM
same,TGI,SK-MEL-2 melanoma,1.48 µM
same,GI50,RXF 393 renal,0.145 µM
same,TGI,RXF 393 renal,0.695 µM
same,GI50,SR leukemia,0.196 µM
same,TGI,SR leukemia,1.86 µM
same,GI50,COLO 205 colon,0.679 µM
same,TGI,COLO 205 colon,2 µM
same,GI50,SK-MEL-5 melanoma,1.08 µM
same,TGI,SK-MEL-5 melanoma,2.27 µM
same,GI50,LXFL 529 NSCLC,0.0476 µM
same,TGI,LXFL 529 NSCLC,0.202 µM
same,GI50,MOLT-4 leukemia,0.124 µM
same,TGI,MOLT-4 leukemia,0.796 µM
same,GI50,A498 renal,0.573 µM
same,TGI,A498 renal,1.86 µM
same,GI50,HT29 colon,1.61 µM
same,TGI,HT29 colon,3.68 µM
same,GI50,TK-10 renal,1.03 µM
same,TGI,TK-10 renal,2.21 µM
same,GI50,OVCAR-4 ovarian,1.68 µM
same,TGI,OVCAR-4 ovarian,3.13 µM
same,GI50,OVCAR-3 ovarian,1.27 µM
same,TGI,OVCAR-3 ovarian,2.54 µM
same,GI50,DMS 273 small cell lung,1.04 µM
same,TGI,DMS 273 small cell lung,2.22 µM
same,GI50,NCI-H23 lung,0.176 µM
same,TGI,NCI-H23 lung,1.14 µM
same,GI50,M14 melanoma,1.06 µM
same,TGI,M14 melanoma,2.26 µM
same,GI50,MALME-3M melanoma,0.24 µM
same,TGI,MALME-3M melanoma,1.35 µM
same,GI50,SNB-75 CNS,0.705 µM
same,TGI,SNB-75 CNS,2.1 µM
same,GI50,NCI-H460 lung,2.27 µM
same,TGI,NCI-H460 lung,5.85 µM
same,GI50,OVCAR-8 ovarian,0.917 µM
same,TGI,OVCAR-8 ovarian,2.13 µM
same,GI50,EKVX NSCLC,0.777 µM
same,TGI,EKVX NSCLC,2.09 µM
same,GI50,SK-MEL-28 melanoma,0.396 µM
same,TGI,SK-MEL-28 melanoma,1.68 µM
same,GI50,K-562 leukemia,0.0535 µM
same,TGI,K-562 leukemia,0.58 µM
same,GI50,CCRF-CEM leukemia,0.0362 µM
same,TGI,CCRF-CEM leukemia,11.9 µM
same,GI50,NCI-H522 lung,0.0232 µM
same,TGI,NCI-H522 lung,0.149 µM
same,GI50,UO-31 renal,1.43 µM
same,TGI,UO-31 renal,2.75 µM
same,GI50,KM12 colon,1.71 µM
same,TGI,KM12 colon,4.03 µM
same,GI50,NCI-H226 lung,0.443 µM
same,TGI,NCI-H226 lung,1.85 µM
same,GI50,HCT-15 colon,1.04 µM
same,TGI,HCT-15 colon,2.23 µM
same,GI50,A549 NSCLC,7 µM
same,TGI,A549 NSCLC,19.9 µM
same,GI50,HCC-2998 colon,1.23 µM
same,TGI,HCC-2998 colon,2.52 µM
